From ChEMBL document CHEMBL1933042, “Discovery of potent and selective matrix metalloprotease 12 inhibitors for the potential treatment of chronic obstructive pulmonary disease (COPD)” (Bioorg Med Chem Lett, 2012) come the findings set out here.

Converted amounts (≈) assume the structure as drawn.

The species entered for data set [1] is Homo sapiens. The data set is described as follows: Selectivity ratio of IC50 for human MMP-13 to IC50 for human MMP-12.
Data set [2] is filed under the species Homo sapiens. Briefly: Selectivity ratio of IC50 for human MMP-8 to IC50 for human MMP-12.
Data set [3] relates to Mus musculus. The data set is described as follows: Inhibition of human recombinant MMP12-induced lung inflammation in C57BL/6 mouse assessed as reduction in bronchoalveolar lavage inflammation at 10 mg/kg, po bid administered at 2 hrs prior to and 12 hrs post challenge measured 24 hrs after last challenge relative to vehicle treated control. Type of data set: functional. As to conditions: C57BL/6, Lung.

The test system of data set [4] is Mus musculus. The data set is described as follows: Inhibition of human recombinant MMP12-induced lung inflammation in po dosed C57BL/6 mouse assessed as minimum effective dose for reduction in Bronchoalveolar Lavage inflammation administered bid at 2 hrs prior to and 12 hrs post challenge measured 24 hrs after last challenge. Type of data set: functional. As to conditions: C57BL/6, po, read-out: MED.

Data set [5] is described as follows: AUC in C57BL/6 mouse at 10 mg/kg, po. Type of data set: ADME, organism-based. Further details: dose 10 mg/kg, route oral. As to conditions: plasma.
Data set [6] can be described thus: Oral bioavailability in C57BL/6 mouse at 10 mg/kg. Type of data set: ADME, organism-based. As to conditions: in vivo.
Data set [7] relates to Mus musculus. The data set is described as follows: Inhibition of human recombinant MMP12-mediated ear swelling in C57BL/6 mouse at 3 mg/kg, po bid administered 12 hrs and 2 hrs prior to challenge measured after 2 hrs relative to vehicle treated control. Type of data set: functional.
Data set [8] relates to Mus musculus. The data set is described as follows: Inhibition of human recombinant MMP12-mediated ear swelling in C57BL/6 mouse at 10 mg/kg, po bid administered 12 hrs and 2 hrs prior to challenge measured after 2 hrs relative to vehicle treated control. Type of data set: functional.
Data set [9] has as its system Mus musculus. Briefly: Inhibition of human recombinant MMP12-mediated ear swelling in C57BL/6 mouse at 30 mg/kg, po bid administered 12 hrs and 2 hrs prior to challenge measured after 2 hrs relative to vehicle treated control. Type of data set: functional.
Data set [10] deals with Mus musculus. Briefly: Inhibition of human recombinant MMP12-induced lung inflammation in C57BL/6 mouse assessed as reduction in bronchoalveolar lavage inflammation at 5 mg/kg, po bid at 2 hrs prior to and 12 hrs post challenge measured 24 hrs after last challenge relative to vehicle treated control. Format: functional. As to conditions: C57BL/6, Lung.
Data set [11] addresses 72 kDa type IV collagenase (Homo sapiens, UniProt P08253). The data set is described as follows: Inhibition of human MMP-2.
The next data set has as its target Stromelysin-1 (Homo sapiens, UniProt P08254). Briefly: Inhibition of human MMP-3.
For the next data set, the target named is T1, Matrilysin (Homo sapiens, UniProt P09237).
T1 sequence (P09237 whole entry): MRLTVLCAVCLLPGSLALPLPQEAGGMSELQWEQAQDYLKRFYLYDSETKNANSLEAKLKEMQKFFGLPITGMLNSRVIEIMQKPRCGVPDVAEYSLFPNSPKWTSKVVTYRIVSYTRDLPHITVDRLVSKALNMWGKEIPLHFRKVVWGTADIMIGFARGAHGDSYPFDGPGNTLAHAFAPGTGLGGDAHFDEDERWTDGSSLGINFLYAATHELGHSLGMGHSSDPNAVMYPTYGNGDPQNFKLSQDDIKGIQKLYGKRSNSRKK
Briefly: Inhibition of human MMP-7.

For the next data set, the target named is Neutrophil collagenase (Homo sapiens, UniProt P22894). The data set is described as follows: Inhibition of human MMP-8.
Neutrophil collagenase, sequence (P22894 whole entry): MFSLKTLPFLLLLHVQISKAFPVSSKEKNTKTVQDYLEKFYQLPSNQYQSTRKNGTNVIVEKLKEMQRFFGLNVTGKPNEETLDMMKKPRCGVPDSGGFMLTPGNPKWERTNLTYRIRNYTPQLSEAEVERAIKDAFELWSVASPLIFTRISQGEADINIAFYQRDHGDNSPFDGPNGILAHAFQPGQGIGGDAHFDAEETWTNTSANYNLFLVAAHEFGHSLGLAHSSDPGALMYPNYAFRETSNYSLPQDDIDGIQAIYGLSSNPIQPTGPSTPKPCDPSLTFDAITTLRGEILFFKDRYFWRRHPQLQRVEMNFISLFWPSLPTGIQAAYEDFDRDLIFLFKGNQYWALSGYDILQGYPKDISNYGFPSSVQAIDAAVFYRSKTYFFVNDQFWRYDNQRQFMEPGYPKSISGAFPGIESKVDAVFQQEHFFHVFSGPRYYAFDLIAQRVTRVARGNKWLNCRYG
The target in data set [12] is Matrix metalloproteinase-9 (Homo sapiens, UniProt P14780). The data set is described as follows: Inhibition of human MMP-9.
Matrix metalloproteinase-9, sequence (P14780 whole entry): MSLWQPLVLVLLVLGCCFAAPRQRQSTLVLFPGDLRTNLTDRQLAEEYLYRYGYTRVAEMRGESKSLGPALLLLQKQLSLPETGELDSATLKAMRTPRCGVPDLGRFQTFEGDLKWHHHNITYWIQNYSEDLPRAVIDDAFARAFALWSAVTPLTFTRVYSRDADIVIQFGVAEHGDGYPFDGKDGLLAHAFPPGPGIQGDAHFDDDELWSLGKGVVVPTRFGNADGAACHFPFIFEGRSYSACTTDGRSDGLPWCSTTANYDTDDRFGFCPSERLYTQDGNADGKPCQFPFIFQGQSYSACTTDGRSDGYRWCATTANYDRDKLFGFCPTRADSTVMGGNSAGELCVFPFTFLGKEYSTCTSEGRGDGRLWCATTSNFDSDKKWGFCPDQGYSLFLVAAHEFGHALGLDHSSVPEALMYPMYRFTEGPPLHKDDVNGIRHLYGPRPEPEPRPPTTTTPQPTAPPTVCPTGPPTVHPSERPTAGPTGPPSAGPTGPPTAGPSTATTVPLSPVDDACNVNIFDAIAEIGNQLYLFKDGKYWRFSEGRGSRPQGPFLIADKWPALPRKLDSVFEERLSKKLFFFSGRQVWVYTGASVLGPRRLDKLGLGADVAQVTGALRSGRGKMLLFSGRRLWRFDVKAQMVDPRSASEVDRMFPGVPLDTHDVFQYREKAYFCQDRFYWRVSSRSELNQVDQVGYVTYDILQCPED
Another data set has as its target Collagenase 3 (Homo sapiens, UniProt P45452). The data set is described as follows: Inhibition of human MMP-13.
Data set [13] can be described thus: Aqueous solubility of the compound at pH 7.4. Format: physicochemical. As to conditions: buffer.
For a further data set, the system named is Salmonella typhimurium. Briefly: Mutagenicity in Salmonella Typhimurium by AMES test. Format: toxicity, organism-based. As to conditions: salmonella enterica subsp. enterica serovar typhimurium.
Data set [14] addresses Voltage-gated inwardly rectifying potassium channel KCNH2 (Homo sapiens, UniProt Q12809). The data set is described as follows: Inhibition of human ERG.
Data set [15] deals with Macrophage metalloelastase (Mus musculus, UniProt P34960). Briefly: Inhibition of mouse MMP-12.
Macrophage metalloelastase (Mus musculus, UniProt P34960), sequence (P34960 whole entry): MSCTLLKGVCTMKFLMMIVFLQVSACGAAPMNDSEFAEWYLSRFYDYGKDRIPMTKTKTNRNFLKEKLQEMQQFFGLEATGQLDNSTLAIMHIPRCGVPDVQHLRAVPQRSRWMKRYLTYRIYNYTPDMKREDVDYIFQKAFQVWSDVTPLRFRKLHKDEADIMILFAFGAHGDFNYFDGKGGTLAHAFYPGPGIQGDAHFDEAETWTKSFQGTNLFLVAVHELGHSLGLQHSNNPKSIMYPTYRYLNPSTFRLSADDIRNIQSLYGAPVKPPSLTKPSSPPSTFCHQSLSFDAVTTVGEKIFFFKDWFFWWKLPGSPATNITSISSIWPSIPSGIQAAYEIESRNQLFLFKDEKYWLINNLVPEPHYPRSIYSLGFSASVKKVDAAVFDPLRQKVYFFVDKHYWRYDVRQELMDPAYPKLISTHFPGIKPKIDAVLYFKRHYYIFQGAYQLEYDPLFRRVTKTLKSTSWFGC
The target of data set [16] is Macrophage metalloelastase (Oryctolagus cuniculus, UniProt P79227). The data set is described as follows: Inhibition of rabbit MMP-12.
Macrophage metalloelastase (Oryctolagus cuniculus, UniProt P79227), sequence (P79227 whole entry): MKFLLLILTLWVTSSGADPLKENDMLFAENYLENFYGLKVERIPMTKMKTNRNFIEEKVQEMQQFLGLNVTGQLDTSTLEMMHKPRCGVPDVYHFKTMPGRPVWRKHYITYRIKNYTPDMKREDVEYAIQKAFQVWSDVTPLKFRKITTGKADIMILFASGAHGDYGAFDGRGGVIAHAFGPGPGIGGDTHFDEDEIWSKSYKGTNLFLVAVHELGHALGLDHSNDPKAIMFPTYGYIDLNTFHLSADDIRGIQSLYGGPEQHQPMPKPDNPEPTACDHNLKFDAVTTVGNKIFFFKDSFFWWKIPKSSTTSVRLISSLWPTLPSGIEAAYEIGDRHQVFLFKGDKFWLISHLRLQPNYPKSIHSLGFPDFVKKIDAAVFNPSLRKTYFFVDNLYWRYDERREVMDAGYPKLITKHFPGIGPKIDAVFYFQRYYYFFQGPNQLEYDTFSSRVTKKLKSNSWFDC
In data set [17] the target is Matrix metalloproteinase-12 (Canis lupus familiaris, UniProt A9X4R8). The data set is described as follows: Inhibition of dog MMP-12.
Matrix metalloproteinase-12, sequence (A9X4R8 whole entry): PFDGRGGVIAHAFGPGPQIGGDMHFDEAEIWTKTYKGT
Data set [18] can be described thus: Inhibition of monkey MMP-12. The arrangement: species or system Macaca mulatta.
A short description of data set [19]: Inhibition of sheep MMP-12. The arrangement: species or system Ovis aries.
Data set [20] in a line: Volume of distribution at steady state in C57BL/6 mouse at 2 mg/kg, iv. Format: ADME, organism-based. Further details: dose 2 mg/kg, route intravenous. As to conditions: in vivo, read-out: Vdss.
The nature of data set [21]: Clearance in C57BL/6 mouse at 2 mg/kg, iv. Format: ADME, organism-based. The arrangement: dose 2 mg/kg, route intravenous. As to conditions: in vivo.
Data set [22] can be described thus: Half life in C57BL/6 mouse at 10 mg/kg, po. Type of data set: ADME, organism-based. Further details: dose 10 mg/kg, route oral. As to conditions: in vivo.
The nature of data set [23]: Cmax in C57BL/6 mouse at 10 mg/kg, po. As to conditions: in vivo. Type of data set: ADME, organism-based. Further details: dose 10 mg/kg, route oral.
Data set [24] has as its target Macrophage metalloelastase (Homo sapiens, UniProt P39900). The data set is described as follows: Inhibition of human MMP-12.

Voltage-gated inwardly rectifying potassium channel KCNH2, sequence (Q12809 whole entry): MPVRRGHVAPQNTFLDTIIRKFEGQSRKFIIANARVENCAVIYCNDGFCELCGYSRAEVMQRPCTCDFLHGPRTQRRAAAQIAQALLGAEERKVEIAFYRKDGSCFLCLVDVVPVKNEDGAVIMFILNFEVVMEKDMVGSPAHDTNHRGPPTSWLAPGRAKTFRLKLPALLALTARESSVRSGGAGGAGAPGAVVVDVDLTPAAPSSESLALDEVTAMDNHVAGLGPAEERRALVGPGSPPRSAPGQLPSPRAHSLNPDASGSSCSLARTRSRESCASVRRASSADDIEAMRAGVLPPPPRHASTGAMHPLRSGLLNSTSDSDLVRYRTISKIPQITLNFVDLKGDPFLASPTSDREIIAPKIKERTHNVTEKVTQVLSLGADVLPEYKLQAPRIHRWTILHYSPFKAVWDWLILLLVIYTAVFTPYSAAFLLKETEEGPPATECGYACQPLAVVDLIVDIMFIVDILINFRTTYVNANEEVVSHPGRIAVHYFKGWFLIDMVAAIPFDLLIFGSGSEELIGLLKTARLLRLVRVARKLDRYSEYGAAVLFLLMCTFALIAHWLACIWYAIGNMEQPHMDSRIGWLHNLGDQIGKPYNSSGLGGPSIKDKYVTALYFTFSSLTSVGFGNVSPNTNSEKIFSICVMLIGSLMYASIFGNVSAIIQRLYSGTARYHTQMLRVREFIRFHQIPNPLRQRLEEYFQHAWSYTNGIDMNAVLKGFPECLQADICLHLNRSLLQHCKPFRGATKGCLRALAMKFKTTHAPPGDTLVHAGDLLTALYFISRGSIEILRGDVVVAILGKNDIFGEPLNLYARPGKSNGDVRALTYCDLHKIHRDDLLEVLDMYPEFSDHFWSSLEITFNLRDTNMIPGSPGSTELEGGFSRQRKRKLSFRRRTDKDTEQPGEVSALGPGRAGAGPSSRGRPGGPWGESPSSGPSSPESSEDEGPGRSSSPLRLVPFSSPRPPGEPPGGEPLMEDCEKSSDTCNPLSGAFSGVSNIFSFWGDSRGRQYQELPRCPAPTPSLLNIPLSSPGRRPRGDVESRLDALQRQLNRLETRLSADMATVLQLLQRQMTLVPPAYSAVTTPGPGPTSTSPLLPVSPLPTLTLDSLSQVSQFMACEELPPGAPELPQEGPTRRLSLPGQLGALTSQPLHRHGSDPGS
72 kDa type IV collagenase, sequence (P08253 whole entry): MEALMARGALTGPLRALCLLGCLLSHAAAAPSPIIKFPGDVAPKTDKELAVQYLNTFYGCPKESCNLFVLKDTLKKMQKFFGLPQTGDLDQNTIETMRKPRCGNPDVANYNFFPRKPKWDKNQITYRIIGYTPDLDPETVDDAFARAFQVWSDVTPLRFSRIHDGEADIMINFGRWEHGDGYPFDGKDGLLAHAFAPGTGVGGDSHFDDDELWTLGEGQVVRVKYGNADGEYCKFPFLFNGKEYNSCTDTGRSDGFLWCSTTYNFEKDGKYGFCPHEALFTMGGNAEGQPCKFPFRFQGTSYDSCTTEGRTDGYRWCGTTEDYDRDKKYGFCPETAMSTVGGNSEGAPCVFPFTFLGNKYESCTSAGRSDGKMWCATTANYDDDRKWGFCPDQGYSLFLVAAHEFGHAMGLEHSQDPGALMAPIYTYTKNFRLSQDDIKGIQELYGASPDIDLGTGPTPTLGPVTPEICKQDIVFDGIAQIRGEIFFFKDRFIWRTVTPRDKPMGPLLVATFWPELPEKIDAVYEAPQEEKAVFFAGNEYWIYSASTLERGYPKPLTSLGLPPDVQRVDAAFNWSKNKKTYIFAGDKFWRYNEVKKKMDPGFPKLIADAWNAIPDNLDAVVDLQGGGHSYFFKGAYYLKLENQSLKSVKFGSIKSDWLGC
Stromelysin-1, sequence (P08254 whole entry): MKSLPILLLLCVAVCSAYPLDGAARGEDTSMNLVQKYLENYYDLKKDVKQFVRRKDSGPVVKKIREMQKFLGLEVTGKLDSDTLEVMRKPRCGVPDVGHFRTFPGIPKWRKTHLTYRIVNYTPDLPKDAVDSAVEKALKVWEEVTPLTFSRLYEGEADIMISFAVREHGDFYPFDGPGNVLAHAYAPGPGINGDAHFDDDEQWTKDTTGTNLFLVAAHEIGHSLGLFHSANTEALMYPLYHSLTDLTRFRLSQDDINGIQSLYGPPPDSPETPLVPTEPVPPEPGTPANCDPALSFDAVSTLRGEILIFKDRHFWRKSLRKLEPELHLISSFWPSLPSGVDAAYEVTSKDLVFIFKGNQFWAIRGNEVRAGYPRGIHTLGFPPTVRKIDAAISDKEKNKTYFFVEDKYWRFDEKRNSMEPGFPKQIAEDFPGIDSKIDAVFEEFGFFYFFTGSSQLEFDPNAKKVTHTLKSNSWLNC
Macrophage metalloelastase (Homo sapiens, UniProt P39900), sequence (P39900 whole entry): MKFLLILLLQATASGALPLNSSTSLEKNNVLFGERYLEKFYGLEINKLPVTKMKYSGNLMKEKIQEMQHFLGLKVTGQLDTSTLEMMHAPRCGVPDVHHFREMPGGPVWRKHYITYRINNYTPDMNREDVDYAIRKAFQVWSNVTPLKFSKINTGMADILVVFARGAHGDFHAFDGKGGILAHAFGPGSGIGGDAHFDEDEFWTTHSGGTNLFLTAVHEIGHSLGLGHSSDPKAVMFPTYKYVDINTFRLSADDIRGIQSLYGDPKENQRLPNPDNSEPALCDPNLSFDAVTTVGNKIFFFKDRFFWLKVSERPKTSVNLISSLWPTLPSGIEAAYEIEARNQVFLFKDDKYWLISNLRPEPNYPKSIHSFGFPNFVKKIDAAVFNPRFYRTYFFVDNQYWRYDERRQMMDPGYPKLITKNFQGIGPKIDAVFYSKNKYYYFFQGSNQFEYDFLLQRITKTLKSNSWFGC

For `CC(C)[C@H](NS(=O)(=O)c1ccc2c(c1)oc1ccc(-c3ccc[nH]3)cc12)C(=O)O`, the Ratio IC50 in the data set listed under Homo sapiens [1] was determined as 525; in the data set filed under Homo sapiens [2], 143.
As to `CC(C)[C@H](NS(=O)(=O)c1ccc2c(c1)oc1ccc(-c3noc(C4CC4)n3)cc12)C(=O)O`, the Ratio IC50 in the data set filed under Homo sapiens [2] stood at 56.
On the same count and under the same terms, the value for `CC(C)[C@H](NS(=O)(=O)c1ccc2c(c1)oc1ccc(-c3noc(C(F)(F)F)n3)cc12)C(=O)O` was 45.
One may read the inhibition in vivo as the share of the control response that was lost under treatment. The AUC is concentration integrated over time. As usually defined, the bioavailability is the share of a dose that reaches the circulation, judged against a reference dose that is usually intravenous. In general, IC50 refers to the point on the concentration scale where inhibition reaches its midpoint. Broadly, the solubility is the dissolved amount per volume that the medium holds. In general, clearance refers to the volume of plasma or blood freed of the substance per unit of time. A word on the half-life: it is the time needed for the level to fall by half in the phase considered. What is called Cmax is the highest concentration seen after dosing. `CC(C)[C@H](NS(=O)(=O)c1ccc2c(c1)oc1ccc(-c3nccs3)cc12)C(=O)O`: the figures for the inhibition in vivo at 10 mg/kg in the data set on Mus musculus [3] and with Mus musculus [8] were above 50% and 38.6%, respectively. In addition, the minimal effective dose with Mus musculus [4] came to 5 mg/kg. The compound further gave an AUC in data set [5] of 20300 ng·h/mL. The compound also displayed a bioavailability in data set [6] of 63%. Besides, in the data set on Mus musculus [7], the inhibition in vivo at 3 mg/kg was 24.9%. Moreover, the inhibition in vivo at 30 mg/kg in the data set with Mus musculus [9] was found to be 65.2%. Also, the inhibition in vivo at 5 mg/kg in the data set on Mus musculus [10] was above 50%. For the same compound, the Ratio IC50 was 1980 in the data set listed under Homo sapiens [1] and 154 in the data set filed under Homo sapiens [2]. Further, the IC50 came to 501 nM in data set [11]; 2530 nM at Stromelysin-1; 57700 nM on Matrilysin; 154 nM against Neutrophil collagenase; 1970 nM in data set [12]; 1980 nM against Collagenase 3. The IC50 amounted to 85 nM in data set [15]; 57 nM in [16]; 70 nM in data set [17]; 244 nM in data set [18]; 5.4 nM in data set [19]. Moreover, in data set [13], the solubility worked out at 550 µg/mL (≈ 1280 µM). Besides, in the data set with Salmonella typhimurium, the Activity result is “Non-toxic”. Moreover, the “inhibition (INH)” value in data set [14] is “Not Active”. The Vd in [20] was 0.8 L/kg. In [21], this compound had a clearance of 5 mL/min/kg. The same compound showed a half-life in data set [22] of 2.9 h. This compound also gave a Cmax in data set [23] of 5550 ng/mL.
Consider `CC(C)[C@H](NS(=O)(=O)c1ccc2c(c1)oc1ccc(-c3noc(C4CCOC4)n3)cc12)C(=O)O` (some centres undefined), for which the Ratio IC50 in the data set listed under Homo sapiens [2] worked out at 100.
Still for that read-out and setting: as for `COCc1nc(-c2ccc3oc4cc(S(=O)(=O)N[C@H](C(=O)O)C(C)C)ccc4c3c2)no1`, the figure is 10.
As for `CC(C)[C@H](NS(=O)(=O)c1ccc2c(c1)oc1ccc(-c3ccoc3)cc12)C(=O)O`, the Ratio IC50 was found to be 900 in the data set filed under Homo sapiens [1] and 33 in the data set filed under Homo sapiens [2].
`Cc1ccc(-c2ccc3oc4cc(S(=O)(=O)N[C@H](C(=O)O)C(C)C)ccc4c3c2)s1`: the Ratio IC50 came out at 1200 in the data set listed under Homo sapiens [1] and 125 in the data set listed under Homo sapiens [2].
In data set [24], `CC(C)[C@H](NS(=O)(=O)c1ccc2c(c1)oc1ccc(-c3cc[nH]n3)cc12)C(=O)O` came in with an IC50 below 1 nM. Moreover, the Ratio IC50 was above 1130 in the data set listed under Homo sapiens [1] and above 2500 in the data set filed under Homo sapiens [2].
`CCc1nc(-c2ccc3oc4cc(S(=O)(=O)N[C@H](C(=O)O)C(C)C)ccc4c3c2)no1`: the Ratio IC50 in the data set filed under Homo sapiens [2] stood at 1.4.
Regarding `CC(C)[C@H](NS(=O)(=O)c1ccc2c(c1)oc1ccc(N3CCN(C)CC3)cc12)C(=O)O`, the Ratio IC50 in the data set listed under Homo sapiens [1] amounted to 38; in the data set filed under Homo sapiens [2] it was 0.5.
The corresponding values for `CC(C)[C@H](NS(=O)(=O)c1ccc2c(c1)oc1ccc(N3CCNCC3)cc12)C(=O)O` are 34 and 2.
For `CC(C)[C@H](NS(=O)(=O)c1ccc2c(c1)oc1ccc(N3CCOCC3)cc12)C(=O)O`, in that order: 154 and 3.
The corresponding values for `Cc1cnc(-c2ccc3oc4cc(S(=O)(=O)N[C@H](C(=O)O)C(C)C)ccc4c3c2)s1` are 460 and 158.
As for `CC(C)c1nc(-c2ccc3oc4cc(S(=O)(=O)N[C@H](C(=O)O)C(C)C)ccc4c3c2)no1`, in the data set listed under Homo sapiens [2], the Ratio IC50 was 19.
Regarding `CC(C)[C@H](NS(=O)(=O)c1ccc2c(c1)oc1ccc(-n3cncn3)cc12)C(=O)O`, the Ratio IC50 is 34 in the data set listed under Homo sapiens [1] and 4 in the data set filed under Homo sapiens [2].
For `CC(C)[C@H](NS(=O)(=O)c1ccc2c(c1)oc1ccc(-c3noc(C4CCC4)n3)cc12)C(=O)O`, the Ratio IC50 in the data set filed under Homo sapiens [2] turned out to be 44.
As for `CC(C)[C@H](NS(=O)(=O)c1ccc2c(c1)oc1ccc(-c3ccc(Cl)o3)cc12)C(=O)O`, the Ratio IC50 in the data set filed under Homo sapiens [1] came to 1440; in the data set listed under Homo sapiens [2], 70.
`CC(C)[C@H](NS(=O)(=O)c1ccc2c(c1)oc1ccc(-c3cccs3)cc12)C(=O)O`: the Ratio IC50 in the data set filed under Homo sapiens [1] stood at 1690; in the data set listed under Homo sapiens [2] it was 100.
For the compound `CC(C)[C@H](NS(=O)(=O)c1ccc2c(c1)oc1ccc(-c3noc(-c4ccccc4)n3)cc12)C(=O)O`, the Ratio IC50 in the data set listed under Homo sapiens [2] is 60.
Turning to `CC(C)[C@H](NS(=O)(=O)c1ccc2c(c1)oc1ccc(-n3cccn3)cc12)C(=O)O`, the Ratio IC50 in the data set filed under Homo sapiens [1] came out at 37; in the data set listed under Homo sapiens [2], 15.
The corresponding values for `CC(C)[C@H](NS(=O)(=O)c1ccc2c(c1)oc1ccc(-n3ccc(C(F)(F)F)n3)cc12)C(=O)O` are 349 and 44.
For the compound `COC(=O)Nc1ccc2oc3cc(S(=O)(=O)N[C@H](C(=O)O)C(C)C)ccc3c2c1`, the Ratio IC50 in the data set filed under Homo sapiens [1] stood at 60.
